Measured values published in US20030175678A1, “Methods for identifying genes regulating desired cell phenotypes” (priority 2001, published 2003).

Assays:
Assay type in all cases: cell-based
[1] = system: C. fascicularis suspension culture; assay: Differential induction of EGCG in Crassula fascicularis suspension culture (HPLC); details: B49 medium, treated on day 7 following subculture
Procedure: Differential induction of catechins in the C. fascicularis suspension culture was performed in 500 mL conical flasks containing 190 mL of either growth medium B105 (modified Gamborg's B5 medium containing 2,4-D (1 mg/L), kinetin (0.1 mg/L), coconut water (100 mL/L), glutamine (10 mM), and 3% sucrose) or a secondary metabolite production medium B49 (Gamborg's B5, 5% sucrose, no hormones), inoculated with 70 mL of 14 day old suspension culture. Cultures were grown for 14 days before harvest and processing. Further cultures grown on production medium B49 were treated using one of each of the following protocols:
(4) A 40 mL aliquot of a day 0 suspension growing on B105 medium was transferred to a 100 mL flask. On day 3, a sterile solution of 5-azacytidine (5-AC) in water was added for a final concentration of 3×10^−5 M, and the resultant mixture was incubated for 11 days. At this point the 40 mL 5-AC-treated culture was subcultured twice before inoculating 190 mL B49 production medium in a 500 mL flask with 70 mL of day 14 suspension. The culture was then treated further according to protocol (2). […]
Lyophilized biomass from 100 mL plant cell culture was extracted three times with 10 mL of boiling aqueous 0.2 M NaH2PO4 solution (total 30 mL). The combined, cooled, extracts were extracted with EtOAc (2×30 mL). The combined EtOAc extracts were then dried under a stream of nitrogen. The samples were dissolved in 50% aqueous acetonitrile at a concentration of 1.0 mg/mL; a 0.1 mL aliquot was transferred into a 0.25 mL glass insert to a 2 mL HPLC vial. The extraction procedure is scalable according to the initial volume of the plant-cell culture used to generate the biomass.
HPLC analyses of compounds in plant cell culture extracts were performed in two systems. System 1 (S1) utilized a Rainin Dynamax SD-200 pumping system, a Varian Dynamax PDA-2 diode array detector, with a Waters XTerra RP 18 (5 μm, 3.0×150 mm) column. The mobile phase was composed from 0.1% acetic acid in H2O (solvent A) and 0.1% acetic acid in acetonitrile (solvent B), at a flow rate of 0.75 mL/min: after maintaining initial conditions (A:B, 95:5) for one minute post-injection, gradient elution was accomplished in a linear fashion over 30 min (to A:B, 40:60). A total of 10 μL of each sample was injected onto the column and eluates were analyzed at a wavelength of 275 nm. System 2 (S2) utilized API-electrospray-LC-MS: a Hewlett Packard series HP1100 with a Waters Xterra RP18 (3.5 μm, 2.1×100 mm) column was used as the inlet for a Micromass Platform-LC, in the positive-ion mode. […] Compounds of interest were detected at 254 nm and as single-charged species via selected-ion monitoring in the mass spectrometer. […]

[2] = system: C. acinaciformis suspension culture; assay: Effect of methyl jasmonate on catechin accumulation in Crassula acinaciformis suspension culture; details: M33 medium, added on day 7, by day 16
Procedure: Catechin derivative profiles in the C. acinaciformis suspension culture were obtained from incubations in 250 mL conical flasks containing either 100 mL of M62 growth medium or 100 mL of a secondary metabolite production medium M33 (Murashige and Skoog (1962); modified to contain 5% sucrose and no hormones) inoculated with 40 mL of 21 day old suspension culture. The cultures were incubated under low light conditions (approximately 30 lux) at 25° C. […] 10 mL culture samples were taken at regular intervals for 16 days following the day of subculture to M33 medium. All culture samples were centrifuged for five minutes at 4000 rpm, and the cell residue was freeze-dried. Extraction, sample preparation, and HPLC analysis were performed as described in Example 1.

[3] = system: terpene cyclases; assay: PCR with degenerate terpene cyclase primers in Ajuga reptans cultures; details: 24 hour post-treatment cultures

SMILES: CC/C=C\CC1C(=O)CCC1CC(=O)OC (stereo not shown) [methyl jasmonate]
- EGCG (mg/gdwt) two days after treatment [1]: 67 mg/gdwt
- catechin level [2]: approximate doubling of catechin level
- PCR band of first degenerate primer combination [3]: induced
- PCR band of second degenerate primer combination (candidate cyclase for compound 6) [3]: not
